In US20190047966A1, “NOVEL COMPOUND AND PHARMACOLOGICALLY ACCEPTABLE SALT THEREOF” (MEIJI SEIKA PHARMA CO., LTD., priority 2016, published 2019):
Counter-ions that a name gives are not always drawn.

Experiments:
[1] = target: T1, human histamine H4 receptor (Homo sapiens, UniProt Q9H3N8); test: Evaluation of Human H4 Receptor Affinity ([3H]histamine binding); conditions: inhibition constant Ki, CHO-K1 membrane preparation, read-out: Evaluation of H4 Receptor Affinity
T1 construct: purchased PerkinElmer Inc; host or cells: CHO-K1
T1 sequence (Q9H3N8 whole entry): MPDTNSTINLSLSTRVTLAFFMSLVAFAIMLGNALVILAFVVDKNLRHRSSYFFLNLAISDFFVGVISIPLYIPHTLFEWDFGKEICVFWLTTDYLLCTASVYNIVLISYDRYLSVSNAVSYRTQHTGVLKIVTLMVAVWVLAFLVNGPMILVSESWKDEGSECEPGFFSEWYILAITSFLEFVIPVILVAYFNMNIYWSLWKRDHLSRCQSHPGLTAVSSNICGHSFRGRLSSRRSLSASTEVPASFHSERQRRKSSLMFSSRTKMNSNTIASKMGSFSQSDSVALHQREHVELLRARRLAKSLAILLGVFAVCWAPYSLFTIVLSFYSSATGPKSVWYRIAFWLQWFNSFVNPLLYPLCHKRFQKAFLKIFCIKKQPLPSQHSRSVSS
Protocol: Test Example 2: Evaluation of Human H4 Receptor Affinity
Membrane preparation from recombinant CHO-K1 cell expressing the human histamine H4 receptor (PerkinElmer Inc.), radiolabeled ligand 8.2 nM [^3H]histamine (PerkinElmer Inc.), and compounds dissolved in DMSO were reacted at 25° C. for 90 minutes in a buffering solution containing 50 mM tris-hydrochloric acid, pH 7.4, and 1.25 mM EDTA on a 96 well plate, followed by filtration using a GF/B filter (PerkinElmer Inc.) pretreated with 0.3% polyethylenimine. The residue was washed four times with a buffering solution of 50 mM tris-hydrochloric acid, pH 7.4. Thereafter, a scintillation cocktail (MicroScint 20: PerkinElmer Inc.) was added to the GF/B filter, and the radioactivity of each well was measured using a liquid scintillation counter for 96-well (TopCount: PerkinElmer Inc.). The non-specific binding was evaluated in the presence of 1.0 μM histamine. The inhibition constant Ki was calculated from the 50% inhibitory concentration (IC50 value) obtained in each test and the Kd value (5.7 nM) unique to this assay system, according to the Cheng-Prusoff equation.

[2] = target: human histamine H1 receptor (Homo sapiens, UniProt P35367); test: Evaluation of Human H1 Receptor Affinity ([3H]pyrilamine binding); parameters: purchased PerkinElmer Inc; host or cells: CHO-K1; conditions: inhibition constant Ki, CHO-K1 membrane preparation
Chain of human histamine H1 receptor (P35367 whole entry): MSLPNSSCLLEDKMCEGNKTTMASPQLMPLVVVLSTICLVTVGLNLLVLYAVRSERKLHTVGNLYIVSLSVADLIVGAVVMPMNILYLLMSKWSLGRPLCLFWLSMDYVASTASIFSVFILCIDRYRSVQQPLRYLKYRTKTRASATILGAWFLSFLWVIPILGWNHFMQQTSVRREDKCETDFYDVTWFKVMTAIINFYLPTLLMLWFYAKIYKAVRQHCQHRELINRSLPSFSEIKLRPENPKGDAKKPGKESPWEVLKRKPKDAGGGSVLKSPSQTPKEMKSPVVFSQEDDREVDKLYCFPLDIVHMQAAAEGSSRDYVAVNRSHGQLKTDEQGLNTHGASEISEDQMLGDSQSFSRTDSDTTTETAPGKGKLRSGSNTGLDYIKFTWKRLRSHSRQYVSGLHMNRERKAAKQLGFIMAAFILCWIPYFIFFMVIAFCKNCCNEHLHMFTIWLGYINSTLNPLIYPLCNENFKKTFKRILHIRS
Protocol: Test Example 1: Evaluation of Human H1 Receptor Affinity
Membrane preparation from recombinant CHO-K1 cell expressing the human histamine H1 receptor (PerkinElmer Inc.), radiolabeled ligand 1.2 nM [^3H]pyrilamine (PerkinElmer Inc.), and test compounds dissolved in DMSO were reacted at 25° C. for 3 hours in a buffering solution containing 50 mM tris-hydrochloric acid, pH 7.4, and 5 mM magnesium chloride on a 96 well plate, followed by filtration using a GF/B filter (PerkinElmer Inc.) pretreated with 0.3% polyethylenimine. The residue was washed four times with a buffering solution of 50 mM tris-hydrochloric acid, pH 7.4. Thereafter, a scintillation cocktail (MicroScint 20: PerkinElmer Inc.) was added to the GF/B filter, and the radioactivity of each well was measured using a liquid scintillation counter for 96-well (TopCount: PerkinElmer Inc.). The non-specific binding was evaluated in the presence of 1.0 μM pyrilamine. The inhibition constant Ki was calculated from the 50% inhibitory concentration (IC50 value) obtained in each test and the Kd value (1.1 nM) unique to this assay system, according to the Cheng-Prusoff equation.

Row | SMILES | Ki [1] | Ki [2]
1 | Nc1nc2c(c(N3CCN(CCOC4CC5C(C4)C5C(=O)O)CC3)n1)CCc1cc(OCc3ccc(OC(F)(F)F)cc3)ccc1-2 (mixture of isomers) [Example 35, 3-(2-(4-(2-amino-8-((4-(trifluoromethoxy)benzyl)oxy)-5,6-dihydrobenzo[h]quinazolin-4-yl)piperazin-1-yl)ethoxy)bicyclo[3.1.0]hexane-6-carboxylic acid] | < 100 nM | < 100 nM
2 | COC(=O)[C@@H]1CC[C@H](COCCN2CCN(c3nc(N)nc4c3CCc3cc(OCc5ccc(Cl)cc5)ccc3-4)CC2)C1 (relative stereo) [153(a), methyl cis-3-((2-(4-(2-amino-8-((4-chlorobenzyl)oxy)-5,6-dihydrobenzo[h]quinazolin-4-yl)piperazin-1-yl)ethoxy)methyl)cyclopentane-l-carboxylate] | < 100 nM | < 100 nM
3 | Nc1nc2c(c(N3CCN(CCOC[C@H]4CC[C@@H](C(=O)O)C4)CC3)n1)CCc1cc(OCc3ccc(Cl)cc3)ccc1-2 (relative stereo) [153(b), cis-3-((2-(4-(2-amino-8-((4-chlorobenzyl)oxy)-5,6-dihydrobenzo[h]quinazolin-4-yl)piperazin-1-yl)ethoxy)methyl)cyclopentane-l-carboxylic acid] | < 100 nM | < 100 nM
4 | Nc1nc2c(c(N3CCN(CCOC[C@H]4CC[C@@H](C(=O)O)C4)CC3)n1)CCc1cc(OCc3ccc(OC(F)(F)F)cc3)ccc1-2 (relative stereo) [Example 155] | < 100 nM | < 100 nM
5 | Nc1nc2c(c(N3CCN(CCOC[C@@H]4CC[C@H](C(=O)O)O4)CC3)n1)CCc1cc(OCc3ccc(Cl)cc3)ccc1-2 (relative stereo) [Example 171, cis-5-((2-(4-(2-amino-8-((4-chlorobenzyl)oxy)-5,6-dihydrobenzo[h]quinazolin-4-yl)piperazin-1-yl)ethoxy)methyl)tetrahydrofuran-2-carboxylic acid] | 100 to 500 nM | < 100 nM
6 | Nc1nc2c(c(N3CCN(CCOC[C@H]4C[C@@H](C(=O)O)O4)CC3)n1)CCc1cc(OCc3ccc(OC(F)(F)F)cc3)ccc1-2 (relative stereo) [Example 176] | 100 to 500 nM | < 100 nM
7 | Nc1nc2c(c(N3CCN(CCOC[C@H]4C[C@H](C(=O)O)O4)CC3)n1)CCc1cc(OCc3ccc(OC(F)(F)F)cc3)ccc1-2 (relative stereo) [Example 177, trans-4-((2-(4-(2-amino-8-((4-(trifluoromethoxy)benzyl)oxy)-5,6-dihydrobenzo[h]quinazolin-4-yl)piperazin-1-yl)ethoxy)methyl)oxetane-2-carboxylic acid] | 100 to 500 nM | < 100 nM
8 | Nc1nc2c(c(N3CCN(CCOC[C@@H]4CCC[C@H](C(=O)O)C4)CC3)n1)CCc1cc(OCc3ccc(OC(F)(F)F)cc3)ccc1-2 (relative stereo) [Example 186, cis-3-((2-(4-(2-amino-8-((4-(trifluoromethoxy)benzyl)oxy)-5,6-dihydrobenzo[h]quinazolin-4-yl)piperazin-1-yl)ethoxy)methyl)cyclohexane-1-carboxylic acid dihydrochloride] | < 100 nM | < 100 nM
9 | CC(Oc1ccc2c(c1)CCc1c-2nc(N)nc1N1CCN(CCO[C@H]2C[C@@H](C(=O)O)C2)CC1)c1ccc(OC(F)(F)F)cc1 (relative stereo) [Example 209, cis-3-(2-(4-(2-amino-8-(1-(4-(trifluoromethoxy)phenyl)ethoxy)-5,6-dihydrobenzo[h]quinazolin-4-yl)piperazin-1-yl)ethoxy)cyclobutane-1-carboxylic acid] | < 100 nM | < 100 nM
10 | COC(=O)COCCOCCN1CCN(c2nc(N)nc3c2CCc2cc(OCc4ccc(Cl)cc4)ccc2-3)CC1 [11(a), methyl 2-(2-(2-(4-(2-amino-8-((4-chlorobenzyl)oxy)-5,6-dihydrobenzo[h]quinazolin-4-yl)piperazin-1-yl)ethoxy)ethoxy)acetate] | < 100 nM | < 100 nM
